The values below come from patent US20090011051A1, “Methods, Compositions and Articles of Manufacture for HIF Modulating Compounds” (priority 2006, published 2009).

The structures appear in SMILES notation. Like-named read-outs stand apart in the source and are kept apart here.

In data set [1] the test system is humans. The note with it: cited from earlier work.
For data set [2], the system named is humans. Conditions: H2S gas; cited from earlier work.
The subject of another data set is rodents. The note with it: H2S gas; cited from earlier work.
For data set [3] the following is noted: extreme levels (500 ppm), followed by recovery; cited from earlier work.
Data set [4] relates to nematodes (Caenorhabditis elegans). The method, then: Nematodes of each strain in the fourth larval stage were moved onto fresh nematode growth plates. […] The nematodes were removed the next morning and the percent surviving nematodes was determined.
Data set [5] has the same test system. The data set can be described thus: Survival of C. elegans in H2S after pre-treatment with H2S gas (Example 2). It counts as in vivo. The note with it: air plus 200 ppm H2S.
Data set [6] relates to rats. Conditions: cited from earlier work.
For data set [7], the system named is rats. Conditions: moderate levels, cited from earlier work.
For data set [8], the system named is humans. The note with it: chronic low-level exposure; cited from earlier work.

Regarding `[C-]#[O+]` [carbon monoxide, Carbon monoxide], the symptoms entry in the data set on humans [1] (50 ppm, humans) is listed as “no symptoms”; in the data set on humans [1] (200 ppm, within two-three hours) it was “slight headache”; in the data set with humans [1] (400 ppm, within one to two hours, may become widespread within three hours), “frontal headache”; in the data set with humans [1] (800 ppm, within 45 minutes), “dizziness, nausea, and/or convulsions”; in the data set on humans [1] (800 ppm, within two hours) it was “insensible”. In addition, the lethality result in the data set on humans [1] (around 1000 ppm, an organism, exposure for more than around 1-2 minutes) was “can expire”.

Turning to `S` [Compound H2S, Hydrogen sulfide], the LD50 result in the data set with humans [2] and in the data set with rodents was “approximately 700 ppm” in each case. Further, the “effect of acute exposure (knockdown effect)” value in [3] is “sudden collapse and unconsciousness”. For the same compound, the percent surviving nematodes entry is on record as “survived” in [4] (nematodes lacking the Egl-9 gene, air plus 100 ppm H2S, in contrast to wild type); “unable to survive” in [4] (nematodes lacking the Hif-1 gene, fourth larval stage, air plus 20 ppm H2S, removed next morning); “able to survive” in [4] (wild type nematodes, fourth larval stage, air plus 20 ppm H2S, removed next morning); “survived” in data set [5] (Egl-9 mutant nematodes); “unable to survive” in [5] (wild type nematodes raised in air). Also, in the data set with rats [6] (perinatal study, 80 ppm), the “neuropathology and behavior of exposed rat pups” value is “no neuropathological effects or altered motor activity, passive avoidance, or acoustic startle response”. For the same compound, the “cerebellar Purkinje cell morphology” value in the data set on rats [6] (rats, 20 or 50 ppm, 7 hours per day from gestation through post-natal day 21) is listed as “longer dendritic branches with reduced aborization of cerebellar Purkinje cells”. Also, in the data set on rats [7] (immediately after the end of the exposure), the discriminated avoidance responses result is reported as “inhibits discriminated avoidance responses”. In addition, the “learning of baited radial arm maze task” value in the data set with rats [7] is “interferes with the ability of rats to learn a baited radial arm maze task”. Besides, the “effects of chronic exposure” value in the data set with humans [8] is “persistent impairments in balance and memory, as well as altered sensory motor functions”.
